Columns and labels:
[1] = target: glucosylceramide synthase (GCS) (Homo sapiens (Human), UniProt Q16739); experiment: Evaluation of inhibitory activities against GCS (enzyme reaction with A549 cell lysate, NBD C6-ceramide, HPLC fluorescence); assay type: biochemical; conditions: GCS activity in A549 cell lysate, 37° C. for 90 minutes
In short: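 Lysate of A549 cells in 50 mM HEPES pH 7.3 incubated with test compound and NBD C6-ceramide at 37 °C for 90 min; lipids extracted with chloroform/methanol and GlcCer and ceramide peaks quantified by HPLC fluorescence. Activity from GlcCer area fraction, normalised between DMSO and ibiglustat controls.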

GM1 production = experiment: cells; assay type: cell-based; conditions: Homo sapiens, Jurkat, 72 h

Sequence of glucosylceramide synthase (GCS) (Q16739 whole entry, looked up): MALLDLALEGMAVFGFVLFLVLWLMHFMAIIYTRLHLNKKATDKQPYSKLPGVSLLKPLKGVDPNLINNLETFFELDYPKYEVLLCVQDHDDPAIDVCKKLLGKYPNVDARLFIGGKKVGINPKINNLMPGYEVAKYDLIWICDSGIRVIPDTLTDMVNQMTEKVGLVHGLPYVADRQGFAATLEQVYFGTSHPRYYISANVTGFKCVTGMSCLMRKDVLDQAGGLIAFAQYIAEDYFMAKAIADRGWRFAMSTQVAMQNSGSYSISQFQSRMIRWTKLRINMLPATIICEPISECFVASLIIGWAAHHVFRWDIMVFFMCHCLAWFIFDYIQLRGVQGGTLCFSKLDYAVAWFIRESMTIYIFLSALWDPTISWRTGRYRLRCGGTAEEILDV

SMILES: CC1(C)CCc2ccc(-c3ccc(OC(F)(F)F)cc3)cc2C1NC(=O)O[C@@H]1CN2CCC1CC2 (stereo partly drawn) [Example 154, (S)-quinuclidin-3-yl (2,2-dimethyl-7-(4-(trifluoromethoxy)phenyl)-1,2,3,4-tetrahydronaphthalen-1-yl)carbamate]
- IC50 [1]: 8.4 nM
- IC50 (GM1 production): 17.7 nM

SMILES: CC1(C)CCc2ccc(-c3ccc(C(F)(F)F)cc3)cc2C1NC(=O)O[C@@H]1CN2CCC1CC2 (stereo partly drawn) [Example 153, (S)-quinuclidin-3-yl (2,2-dimethyl-7-(4-(trifluoromethyl)phenyl)-1,2,3,4-tetrahydronaphthalen-1-yl)carbamate]
- IC50 [1]: 4.43 nM
- IC50 (GM1 production): 5.54 nM

SMILES: CCCc1ccc(-c2cc3c(cc2F)C(NC(=O)O[C@@H]2CN4CCC2CC4)C(C)(C)CC3)cc1 (stereo partly drawn) [Example 229, (S)-quinuclidin-3-yl (7-fluoro-2,2-dimethyl-6-(4-propylphenyl)-1,2,3,4-tetrahydronaphthalen-1-yl)carbamate]
- IC50 [1]: 0.31 nM
- IC50 (GM1 production): 1.7 nM

SMILES: CC1(C)CCc2cc(-c3ccccc3Cl)ccc2C1NC(=O)O[C@@H]1CN2CCC1CC2 (stereo partly drawn) [Example 95, (S)-quinuclidin-3-yl (6-(2-chlorophenyl)-2,2-dimethyl-1,2,3,4-tetrahydronaphthalen-1-yl)carbamate]
- IC50 [1]: 0.85 nM
- IC50 (GM1 production): 0.123 nM

SMILES: O=C(NC1CCCc2ccc(-c3cc(Cl)ccc3Cl)cc21)O[C@@H]1CN2CCC1CC2 (stereo partly drawn) [Example 71, (S)-quinuclidin-3-yl (7-(2,5-dichlorophenyl)-1,2,3,4-tetrahydronaphthalen-1-yl)carbamate]
- IC50 [1]: 22.8 nM
- IC50 (GM1 production): 95.4 nM

SMILES: CC1(C)CCc2cc(-c3cccc(C(F)F)c3)ccc2C1NC(=O)O[C@@H]1CN2CCC1CC2 (stereo partly drawn) [Example 130, (S)-quinuclidin-3-yl (6-(3-(difluoromethyl)phenyl)-2,2-dimethyl-1,2,3,4-tetrahydronaphthalen-1-yl)carbamate]
- IC50 [1]: 1.24 nM
- IC50 (GM1 production): 1.3 nM

SMILES: COCOc1ccccc1-c1ccc2c(c1)CCC(C)(C)C2NC(=O)O[C@@H]1CN2CCC1CC2 (stereo partly drawn) [Example 115, (S)-quinuclidin-3-yl (6-(2-(methoxymethoxy)phenyl)-2,2-dimethyl-1,2,3,4-tetrahydronaphthalen-1-yl)carbamate]
- IC50 [1]: 1.17 nM
- IC50 (GM1 production): 0.56 nM

SMILES: COCCOc1cccc(-c2ccc3c(c2)C(NC(=O)O[C@@H]2CN4CCC2CC4)C(C)(C)CC3)c1 (stereo partly drawn) [Example 166, (S)-quinuclidin-3-yl (7-(3-(2-methoxyethoxy)phenyl)-2,2-dimethyl-1,2,3,4-tetrahydronaphthalen-1-yl)carbamate]
- IC50 [1]: 56.2 nM
- IC50 (GM1 production): 392 nM

SMILES: COc1ccc(-c2ccc3c(c2)CCCC3NC(=O)O[C@@H]2CN3CCC2CC3)cc1 (stereo partly drawn) [Example 46, (S)-quinuclidin-3-yl (6-(4-methoxyphenyl)-1,2,3,4-tetrahydronaphthalen-1-yl)carbamate]
- IC50 [1]: 13 nM
- IC50 (GM1 production): 216 nM

SMILES: COc1ccc(-c2ccc3c(c2)CCC(C)(C)C3NC(=O)O[C@@H]2CN3CCC2CC3)c(Cl)c1 (stereo partly drawn) [Example 123, (S)-quinuclidin-3-yl (6-(2-chloro-4-methoxyphenyl)-2,2-dimethyl-1,2,3,4-tetrahydronaphthalen-1-yl)carbamate]
- IC50 [1]: 0.97 nM
- IC50 (GM1 production): 1.43 nM

SMILES: O=C(NC1CCCc2cc(-c3ccc(F)cc3)ccc21)O[C@@H]1CN2CCC1CC2 (stereo partly drawn) [Example 1, (S)-quinuclidin-3-yl (6-(4-fluorophenyl)-1,2,3,4-tetrahydronaphthalen-1-yl)carbamate]
- IC50 [1]: 6.78 nM
- IC50 (GM1 production): 62.6 nM

SMILES: CC(C)Cc1ccc(-c2ccc3c(c2)CCC2(CC2)C3NC(=O)O[C@@H]2CN3CCC2CC3)cc1 (stereo partly drawn) [Example 224, (S)-quinuclidin-3-yl (6′-(4-isobutylphenyl)-3′,4′-dihydro-1′H-spiro[cyclopropane-1,2′-naphthalen]-1′-yl)carbamate]
- IC50 [1]: 1.53 nM
- IC50 (GM1 production): 6.7 nM

SMILES: CC(C)(C)c1cccc(-c2ccc3c(c2)CCC2(CC2)C3NC(=O)O[C@@H]2CN3CCC2CC3)c1 (stereo partly drawn) [Example 204, (S)-quinuclidin-3-yl (6′-(3-(tert-butyl)phenyl)-3′,4′-dihydro-1′H-spiro[cyclopropane-1,2′-naphthalen]-1′-yl)carbamate]
- IC50 [1]: 38.4 nM
- IC50 (GM1 production): 92.9 nM

SMILES: COCCOc1cccc(-c2ccc3c(c2)CCC(C)(C)C3NC(=O)O[C@@H]2CN3CCC2CC3)c1 (stereo partly drawn) [Example 111, (S)-quinuclidin-3-yl (6-(3-(2-methoxyethoxy)phenyl)-2,2-dimethyl-1,2,3,4-tetrahydronaphthalen-1-yl)carbamate]
- IC50 [1]: 2.36 nM
- IC50 (GM1 production): 1.84 nM

SMILES: COc1cc2c(cc1-c1ccc(CC(C)C)cc1)CCC(C)(C)C2NC(=O)O[C@@H]1CN2CCC1CC2 (stereo partly drawn) [Example 236, (S)-quinuclidin-3-yl (6-(4-isobutylphenyl)-7-methoxy-2,2-dimethyl-1,2,3,4-tetrahydronaphthalen-1-yl)carbamate]
- IC50 [1]: 0.53 nM
- IC50 (GM1 production): 3.2 nM

SMILES: COCOc1ccc(-c2ccc3c(c2)CCC2(CC2)C3NC(=O)O[C@@H]2CN3CCC2CC3)cc1 (stereo partly drawn) [Example 197, (S)-quinuclidin-3-yl (6′-(4-(methoxymethoxy)phenyl)-3′,4′-dihydro-1′H-spiro[cyclopropane-1,2′-naphthalen]-1′-yl)carbamate]
- IC50 [1]: 3.13 nM
- IC50 (GM1 production): 2.8 nM

SMILES: O=C(NC1c2cc(-c3cccc(Cl)c3)ccc2CCC12CC2)O[C@@H]1CN2CCC1CC2 (stereo partly drawn) [Example 176, (S)-quinuclidin-3-yl (7′-(3-chlorophenyl)-3′,4′-dihydro-1′H-spiro[cyclopropane-1,2′-naphthalen]-1′-yl)carbamate]
- IC50 [1]: 14.9 nM
- IC50 (GM1 production): 211 nM

SMILES: CCCCOc1ccc(-c2ccc3c(c2)CCC(C)(C)C3NC(=O)O[C@@H]2CN3CCC2CC3)cc1Cl (stereo partly drawn) [Example 143, (S)-quinuclidin-3-yl (6-(4-butoxy-3-chlorophenyl)-2,2-dimethyl-1,2,3,4-tetrahydronaphthalen-1-yl)carbamate]
- IC50 [1]: 1.44 nM
- IC50 (GM1 production): 0.5 nM

SMILES: O=C(NC1c2ccc(-c3cccc(C(F)(F)F)c3)cc2CCC12CC2)O[C@@H]1CN2CCC1CC2 (stereo partly drawn) [Example 192, (S)-quinuclidin-3-yl (6′-(3-(trifluoromethyl)phenyl)-3′,4′-dihydro-1′H-spiro[cyclopropane-1,2′-naphthalen]-1′-yl)carbamate]
- IC50 [1]: 12.9 nM
- IC50 (GM1 production): 14 nM

SMILES: O=C(NC1CCCc2cc(-c3cccc(C(F)(F)F)c3)ccc21)O[C@@H]1CN2CCC1CC2 (stereo partly drawn) [Example 7, (S)-quinuclidin-3-yl (6-(3-(trifluoromethyl)phenyl)-1,2,3,4-tetrahydronaphthalen-1-yl)carbamate]
- IC50 [1]: 1.69 nM
- IC50 (GM1 production): 13.6 nM

SMILES: COCOc1ccc(-c2ccc3c(c2)C(NC(=O)O[C@@H]2CN4CCC2CC4)C2(CC3)CC2)cc1 (stereo partly drawn) [Example 185, (S)-quinuclidin-3-yl (7′-(4-(methoxymethoxy)phenyl)-3′,4′-dihydro-1′H-spiro[cyclopropane-1,2′-naphthalen]-1′-yl)carbamate]
- IC50 [1]: 14.8 nM
- IC50 (GM1 production): 73 nM

SMILES: COc1cc2c(cc1-c1ccnc(OC(C)(C)C)c1)CCC(C)(C)C2NC(=O)O[C@@H]1CN2CCC1CC2 (stereo partly drawn) [Example 237, (S)-quinuclidin-3-yl (6-(2-(tert-butoxy)pyridin-4-yl)-7-methoxy-2,2-dimethyl-1,2,3,4-tetrahydronaphthalen-1-yl)carbamate]
- IC50 [1]: 1.84 nM
- IC50 (GM1 production): 18.8 nM

SMILES: O=C(NC1c2cc(-c3cccc(OC(F)(F)F)c3)ccc2CCC12CC2)O[C@@H]1CN2CCC1CC2 (stereo partly drawn) [Example 178, (S)-quinuclidin-3-yl (7′-(3-(trifluoromethoxy)phenyl)-3′,4′-dihydro-1′H-spiro[cyclopropane-1,2′-naphthalen]-1′-yl)carbamate]
- IC50 [1]: 22.7 nM
- IC50 (GM1 production): 274 nM

SMILES: CN(C)c1cccc(-c2ccc3c(c2)CCC2(CC2)C3NC(=O)O[C@@H]2CN3CCC2CC3)c1 (stereo partly drawn) [Example 207, (S)-quinuclidin-3-yl (6′-(3-(dimethylamino)phenyl)-3′,4′-dihydro-1′H-spiro[cyclopropane-1,2′-naphthalen]-1′-yl)carbamate]
- IC50 [1]: 23.2 nM
- IC50 (GM1 production): 57.3 nM

SMILES: O=C(NC1CCCc2cc(-c3ccccc3F)ccc21)O[C@@H]1CN2CCC1CC2 (stereo partly drawn) [Example 9, (S)-quinuclidin-3-yl (6-(2-fluorophenyl)-1,2,3,4-tetrahydronaphthalen-1-yl)carbamate]
- IC50 [1]: 2.65 nM
- IC50 (GM1 production): 41.3 nM

SMILES: COc1cccc(-c2ccc3c(c2)CCC2(CC2)C3NC(=O)O[C@@H]2CN3CCC2CC3)c1OC (stereo partly drawn) [Example 209, (S)-quinuclidin-3-yl (6′-(2,3-dimethoxyphenyl)-3′,4′-dihydro-1′H-spiro[cyclopropane-1,2′-naphthalen]-1′-yl)carbamate]
- IC50 [1]: 15.2 nM
- IC50 (GM1 production): 47 nM

SMILES: CC1(C)CCc2cc(-c3ccc(F)c(F)c3)ccc2C1NC(=O)O[C@@H]1CN2CCC1CC2 (stereo partly drawn) [Example 100, (S)-quinuclidin-3-yl (6-(3,4-difluorophenyl)-2,2-dimethyl-1,2,3,4-tetrahydronaphthalen-1-yl)carbamate]
- IC50 [1]: 1.78 nM
- IC50 (GM1 production): 2.59 nM

SMILES: O=C(NC1CCCc2cc(-c3ccc4c(c3)OC(F)(F)O4)ccc21)O[C@@H]1CN2CCC1CC2 (stereo partly drawn) [Example 42, (S)-quinuclidin-3-yl (6-(2,2-difluorobenzo[d][1,3]dioxol-5-yl)-1,2,3,4-tetrahydronaphthalen-1-yl)carbamate]
- IC50 [1]: 6.71 nM
- IC50 (GM1 production): 210 nM

SMILES: COc1ccc(Cl)c(-c2ccc3c(c2)CCC(C)(C)C3NC(=O)O[C@@H]2CN3CCC2CC3)c1 (stereo partly drawn) [Example 125, (S)-quinuclidin-3-yl (6-(2-chloro-5-methoxyphenyl)-2,2-dimethyl-1,2,3,4-tetrahydronaphthalen-1-yl)carbamate]
- IC50 [1]: 1.1 nM
- IC50 (GM1 production): 2.04 nM

SMILES: COc1cc(-c2ccc3c(c2)CCCC3NC(=O)O[C@@H]2CN3CCC2CC3)ccn1 (stereo partly drawn) [Example 51, (S)-quinuclidin-3-yl (6-(2-methoxypyridin-4-yl)-1,2,3,4-tetrahydronaphthalen-1-yl)carbamate]
- IC50 [1]: 9.42 nM
- IC50 (GM1 production): 426 nM
